Measurements: PubChem BioAssay AID1919017 (Molecular Pharmacology Branch, DTP, NCI, 2023)

System: SW1271 complex spheroids with HUVEC/MSC, growth, % test/control
Test: Anticancer human tumor SW1271 cell line growth inhibition [AhR];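 also: spheroids exposed to agents for 7 days before readout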
Settings: for IC50: curve of first compound; for viability, T/C: stronger effect = lower value; active = viability on the fitted dose curve at most 10% of control; inactive = the rest
Method in brief: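 Agents were dosed in half-log steps down from roughly clinical Cmax, or from 10 microM where Cmax was unknown, alone and with AhR antagonists. Read-out: percent test/control growth of tumor spheroids containing HUVEC and MSC stromal cells.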

[1] = second compound 0.1 µM, first compound 0.0316 µM
[2] = second compound 0.1 µM, first compound 0.1 µM
[3] = second compound 0.1 µM, first compound 0.316 µM
[4] = second compound 0.1 µM, first compound 1 µM
[5] = second compound 0.316 µM, first compound 0.0316 µM
[6] = second compound 0.316 µM, first compound 0.1 µM
[7] = second compound 0.316 µM, first compound 0.316 µM
[8] = second compound 0.316 µM, first compound 1 µM
[9] = second compound 1 µM, first compound 0.0316 µM
[10] = second compound 1 µM, first compound 0.1 µM
[11] = second compound 1 µM, first compound 0.316 µM
[12] = second compound 1 µM, first compound 1 µM
[13] = second compound 3.16 µM, first compound 0.0316 µM
[14] = second compound 3.16 µM, first compound 0.1 µM
[15] = second compound 3.16 µM, first compound 0.316 µM
[16] = second compound 3.16 µM, first compound 1 µM
[17] = second compound 10 µM, first compound 0.0316 µM
[18] = second compound 10 µM, first compound 0.1 µM
[19] = second compound 10 µM, first compound 0.316 µM
[20] = second compound 10 µM, first compound 1 µM
[21] = second compound 0.1 µM, first compound 0.00949 µM
[22] = second compound 0.1 µM, first compound 0.03 µM
[23] = second compound 0.1 µM, first compound 0.0949 µM
[24] = second compound 0.1 µM, first compound 0.3 µM
[25] = second compound 0.1 µM, first compound 0.949 µM
[26] = second compound 0.1 µM, first compound 3 µM
[27] = second compound 0.316 µM, first compound 0.00949 µM
[28] = second compound 0.316 µM, first compound 0.03 µM
[29] = second compound 0.316 µM, first compound 0.0949 µM
[30] = second compound 0.316 µM, first compound 0.3 µM
[31] = second compound 0.316 µM, first compound 0.949 µM
[32] = second compound 0.316 µM, first compound 3 µM
[33] = second compound 1 µM, first compound 0.00949 µM
[34] = second compound 1 µM, first compound 0.03 µM
[35] = second compound 1 µM, first compound 0.0949 µM
[36] = second compound 1 µM, first compound 0.3 µM
[37] = second compound 1 µM, first compound 0.949 µM
[38] = second compound 1 µM, first compound 3 µM
[39] = second compound 3.16 µM, first compound 0.00949 µM
[40] = second compound 3.16 µM, first compound 0.03 µM
[41] = second compound 3.16 µM, first compound 0.0949 µM
[42] = second compound 3.16 µM, first compound 0.3 µM
[43] = second compound 3.16 µM, first compound 0.949 µM
[44] = second compound 3.16 µM, first compound 3 µM
[45] = second compound 10 µM, first compound 0.00949 µM
[46] = second compound 10 µM, first compound 0.03 µM
[47] = second compound 10 µM, first compound 0.0949 µM
[48] = second compound 10 µM, first compound 0.3 µM
[49] = second compound 10 µM, first compound 0.949 µM
[50] = second compound 10 µM, first compound 3 µM

CC1COCCN1c1cc(-c2ccnn2C)c2ccnc(-c3ccn[nH]3)c2n1 (stereo not given) + CC(CO)NC(=O)c1cc(-c2ccc(Cl)cc2)nn(-c2cnn(C)c2)c1=O
694 nM: IC50 (second compound 3.16 µM)
> 1000 nM: IC50 (second compound 1 µM)
916 nM: IC50 (second compound 0.1 µM)
867 nM: IC50 (second compound 0.316 µM)
543 nM: IC50 (second compound 10 µM)
inactive: viability, T/C (second compound 0.1 µM, first compound 0.00316 µM) 102% | viability, T/C (second compound 0.1 µM, first compound 0.01 µM) 97.5% | viability, T/C [1] 94.4% | viability, T/C [2] 82.1% | viability, T/C [3] 67.8% | viability, T/C [4] 48.5% | viability, T/C (second compound 0.316 µM, first compound 0.00316 µM) 92.5% | viability, T/C (second compound 0.316 µM, first compound 0.01 µM) 96.1% | viability, T/C [5] 81.7% | viability, T/C [6] 84.3% | viability, T/C [7] 70% | viability, T/C [8] 46.8% | viability, T/C (second compound 1 µM, first compound 0.00316 µM) 110% | viability, T/C (second compound 1 µM, first compound 0.01 µM) 98.2% | viability, T/C [9] 86.7% | viability, T/C [10] 80.7% | viability, T/C [11] 65.7% | viability, T/C [12] 49.1% | viability, T/C (second compound 3.16 µM, first compound 0.00316 µM) 84.5% | viability, T/C (second compound 3.16 µM, first compound 0.01 µM) 79.2% | viability, T/C [13] 75.5% | viability, T/C [14] 75.9% | viability, T/C [15] 57.2% | viability, T/C [16] 45.6% | viability, T/C (second compound 10 µM, first compound 0.00316 µM) 88.9% | viability, T/C (second compound 10 µM, first compound 0.01 µM) 75% | viability, T/C [17] 68.5% | viability, T/C [18] 66.6% | viability, T/C [19] 47.9% | viability, T/C [20] 47.6%

CC1COCCN1c1cc(C2(S(C)(=N)=O)CC2)nc(-c2ccnc3[nH]ccc23)n1 (stereo not given) + CC(CO)NC(=O)c1cc(-c2ccc(Cl)cc2)nn(-c2cnn(C)c2)c1=O
8830 nM: IC50 (second compound 3.16 µM)
> 10000 nM: IC50 (second compound 0.1 µM) | IC50 (second compound 0.316 µM) | IC50 (second compound 1 µM) | IC50 (second compound 10 µM)
inactive: viability, T/C [1] 114% | viability, T/C [2] 92.9% | viability, T/C [3] 77.6% | viability, T/C [4] 88.9% | viability, T/C (second compound 0.1 µM, first compound 3.16 µM) 72.7% | viability, T/C (second compound 0.1 µM, first compound 10 µM) 59.9% | viability, T/C [5] 91.3% | viability, T/C [6] 96.7% | viability, T/C [7] 90.3% | viability, T/C [8] 73.2% | viability, T/C (second compound 0.316 µM, first compound 3.16 µM) 56.1% | viability, T/C (second compound 0.316 µM, first compound 10 µM) 50.9% | viability, T/C [9] 80.7% | viability, T/C [10] 100% | viability, T/C [11] 98.5% | viability, T/C [12] 77% | viability, T/C (second compound 1 µM, first compound 3.16 µM) 68.3% | viability, T/C (second compound 1 µM, first compound 10 µM) 57.1% | viability, T/C [13] 98.3% | viability, T/C [14] 83.4% | viability, T/C [15] 86.4% | viability, T/C [16] 73.3% | viability, T/C (second compound 3.16 µM, first compound 3.16 µM) 61.1% | viability, T/C (second compound 3.16 µM, first compound 10 µM) 48.5% | viability, T/C [17] 80% | viability, T/C [18] 67.6% | viability, T/C [19] 72% | viability, T/C [20] 70.6% | viability, T/C (second compound 10 µM, first compound 3.16 µM) 69.2% | viability, T/C (second compound 10 µM, first compound 10 µM) 62.9%

CCN(c1cc(-c2ccc(CN3CCOCC3)cc2)cc(C(=O)NCc2c(C)cc(C)[nH]c2=O)c1C)C1CCOCC1 + CC(CO)NC(=O)c1cc(-c2ccc(Cl)cc2)nn(-c2cnn(C)c2)c1=O
inactive: viability, T/C [21] 122% | viability, T/C [22] 117% | viability, T/C [23] 106% | viability, T/C [24] 97.2% | viability, T/C [25] 102% | viability, T/C [26] 91.8% | viability, T/C [27] 101% | viability, T/C [28] 108% | viability, T/C [29] 120% | viability, T/C [30] 113% | viability, T/C [31] 110% | viability, T/C [32] 112% | viability, T/C [33] 86.6% | viability, T/C [34] 105% | viability, T/C [35] 119% | viability, T/C [36] 94.5% | viability, T/C [37] 105% | viability, T/C [38] 110% | viability, T/C [39] 91.9% | viability, T/C [40] 88% | viability, T/C [41] 103% | viability, T/C [42] 89.3% | viability, T/C [43] 106% | viability, T/C [44] 90.3% | viability, T/C [45] 91.7% | viability, T/C [46] 94.5% | viability, T/C [47] 81.3% | viability, T/C [48] 84.9% | viability, T/C [49] 74.1% | viability, T/C [50] 79.4%
> 3000 nM: IC50 (second compound 0.1 µM) | IC50 (second compound 0.316 µM) | IC50 (second compound 1 µM) | IC50 (second compound 3.16 µM) | IC50 (second compound 10 µM)

Nc1ncn(C2CC(O)C(CO)S2)c(=O)n1 (stereo not given) + CC(CO)NC(=O)c1cc(-c2ccc(Cl)cc2)nn(-c2cnn(C)c2)c1=O
inactive: viability, T/C (second compound 0.1 µM, first compound 0.000949 µM) 110% | viability, T/C (second compound 0.1 µM, first compound 0.003 µM) 98.1% | viability, T/C [21] 107% | viability, T/C [22] 102% | viability, T/C [23] 83.4% | viability, T/C [24] 87.3% | viability, T/C (second compound 0.316 µM, first compound 0.000949 µM) 103% | viability, T/C (second compound 0.316 µM, first compound 0.003 µM) 87% | viability, T/C [27] 116% | viability, T/C [28] 113% | viability, T/C [29] 74% | viability, T/C [30] 68.9% | viability, T/C (second compound 1 µM, first compound 0.000949 µM) 93.4% | viability, T/C (second compound 1 µM, first compound 0.003 µM) 77.5% | viability, T/C [33] 92% | viability, T/C [34] 96% | viability, T/C [35] 99.2% | viability, T/C [36] 80.4% | viability, T/C (second compound 3.16 µM, first compound 0.000949 µM) 93% | viability, T/C (second compound 3.16 µM, first compound 0.003 µM) 76.5% | viability, T/C [39] 83.5% | viability, T/C [40] 82% | viability, T/C [41] 84.8% | viability, T/C [42] 68.1% | viability, T/C (second compound 10 µM, first compound 0.000949 µM) 87.3% | viability, T/C (second compound 10 µM, first compound 0.003 µM) 78.1% | viability, T/C [45] 80.9% | viability, T/C [46] 77.4% | viability, T/C [47] 84.2% | viability, T/C [48] 68%
> 300 nM: IC50 (second compound 0.1 µM) | IC50 (second compound 0.316 µM) | IC50 (second compound 1 µM) | IC50 (second compound 3.16 µM) | IC50 (second compound 10 µM)

O=C(C=Cn1cnc(-c2cc(C(F)(F)F)cc(C(F)(F)F)c2)n1)NNc1cnccn1 + CC(CO)NC(=O)c1cc(-c2ccc(Cl)cc2)nn(-c2cnn(C)c2)c1=O
996 nM: IC50 (second compound 0.1 µM)
625 nM: IC50 (second compound 1 µM)
450 nM: IC50 (second compound 3.16 µM)
inactive: viability, T/C [21] 108% | viability, T/C [22] 76.7% | viability, T/C [23] 93.1% | viability, T/C [24] 70.5% | viability, T/C [25] 45.6% | viability, T/C [26] 34.3% | viability, T/C [27] 74.4% | viability, T/C [28] 79.2% | viability, T/C [29] 72.3% | viability, T/C [30] 63.7% | viability, T/C [31] 50% | viability, T/C [32] 31.7% | viability, T/C [33] 73.9% | viability, T/C [34] 86.7% | viability, T/C [35] 70.8% | viability, T/C [36] 60.4% | viability, T/C [37] 44% | viability, T/C [38] 40.5% | viability, T/C [39] 85.2% | viability, T/C [40] 75.3% | viability, T/C [41] 87.3% | viability, T/C [42] 57.4% | viability, T/C [43] 34.8% | viability, T/C [44] 37.8% | viability, T/C [45] 79% | viability, T/C [46] 71.7% | viability, T/C [47] 68.8% | viability, T/C [48] 92.2% | viability, T/C [49] 43.2% | viability, T/C [50] 27%
911 nM: IC50 (second compound 0.316 µM)
756 nM: IC50 (second compound 10 µM)
